In general, IC50 refers to the concentration that gives 50% inhibition. Higher therefore signals lower potency.

Results on two molecules are retold here after patent publication US20070237848A1, “MORINDA CITRIFOLIA BASED COMPOSITIONS FOR TREATMENT OF ANTI-INFLAMMATORY DISEASES THROUGH INHIBITION OF COX-1, COX-2, INTERLEUKIN-1beta, INTERLEUKIN-6, TNF-alpha, HLE, AND iNOS” (priority 2005, published 2007).

Assay [1] addresses T1, Human Leukocyte Elastase (HLE) (Homo sapiens, UniProt P08246).
T1 sequence (P08246 30-267): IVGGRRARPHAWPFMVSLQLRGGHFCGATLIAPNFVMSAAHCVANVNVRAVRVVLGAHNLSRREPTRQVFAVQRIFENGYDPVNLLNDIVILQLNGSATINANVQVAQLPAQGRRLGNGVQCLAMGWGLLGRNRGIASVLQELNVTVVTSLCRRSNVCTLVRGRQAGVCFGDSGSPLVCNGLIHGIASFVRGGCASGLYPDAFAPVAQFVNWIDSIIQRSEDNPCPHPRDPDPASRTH
The assay is described as follows: Leukocyte Elastase Assay (p-Nitroaniline, photometric). In kind it is biochemical. Particulars: standard reference agent. The protocol: A Leukocyte Elastase Assay was performed as follows. After preincubating the samples with the enzyme HLE (20 nM) at room temperature for 10 minutes, the reaction was started with an enzyme substrate (5 mM). The reaction time was 15 min at room temperature. The controls [t(0)] were performed without enzyme. […] The quantification of p-Nitroaniline was performed by direct photometrical measurement.
All sample points were measured in duplicate. […] The following tables, charts, and FIGS. 8A and 8B summarize the assay and the results.

For assay [2], the system named is inducible Nitrite Oxide Synthase (iNOS). Put plainly: iNOS assay in LPS-stimulated murine macrophages (J774A.1). The class given is cell-based. Particulars: standard reference agent. The protocol:
An iNOS Assay was performed as follows. Murine Macrophages (1.5*10^5 cells/well) were seeded for 24 hours. After preincubating the samples with the cells at room temperature for 10 minutes, the reaction was started with 1 μg/ml LPS (E.coli 055:B5). The incubation time was 24 hours at 37° C. and 5% CO 2. The controls [t(0)] were performed without LPS stimulation. The quantification of Nitric Oxide was performed with a Nitric Oxide Colorimetric Assay Kit from BioVision (Art.Nr: #K262-200). The optical densities were measured at λ=570 nm. […] Sample points were measured in triplicate. […] The following tables and charts and FIG. 9 summarize the assay and the results.

In assay [1], `C[C@H]1[C@H](C)CC[C@]2(C(=O)O)CC[C@]3(C)C(=CC[C@@H]4[C@@]5(C)CC[C@H](O)C(C)(C)[C@@H]5CC[C@]43C)[C@H]12` [Ursolic acid] registered a half-maximal inhibitory concentration (IC50) of 30 µM. Regarding `COC(=O)[C@@H](N)CCCNC(=N)N[N+](=O)[O-]` [L-NAME], the IC50 in assay [2] turned out to be 600 µM.
